Test results published in patent publication US9651864B2, “Negative resist composition, method for producing relief pattern using the same, and electronic component using the same” (DAI NIPPON PRINTING CO., LTD., priority 2010, dated 2017).

How the values were obtained:
Type in all cases: physicochemical
[1] = Glass transition temperature (Tg) by differential thermal analyzer DSC-60; conditions: second heating to 200° C. at 10° C./min; deemed 200° C. or more when no inflection point until 200° C.
Protocol: Glass transition temperature (Tg): an intersection point of two tangents to smooth curving lines before and after the inflection temperature point of a DTA curve, the DTA curve being obtained when a material for forming a pattern of about 4 mg was heated to 200° C. at a rate of 10° C./min, cooled to room temperature and then heated to 200° C. at a rate of 10° C./min again, with a differential thermal analyzer (DSC-60 manufactured by Shimadzu Corporation).
Tg was deemed as 200° C. or more when no inflection point was found on the DTA curve until 200° C., which point corresponds to glass transition temperature.

[2] = Evaluation of solvent solubility of phenolic compound in typical resist solvents; conditions: (D)-3: Cyclopentanone; 1 or 5 wt % at 23° C.
[3] = as above; design: key to Solubility in (D)-2: ⊚: The material for forming a pattern was dissolved at a concentration of 5 wt % at 23° C.; ◯: The material for forming a pattern was dissolved at a concentration of 1 wt % at 23° C.; X: The material for forming a pattern was insoluble; conditions: for Solubility in (D)-1: (D)-1: Propylene glycol monomethylether; for Solubility in (D)-1 / Solubility in (D)-2: 1 or 5 wt % at 23° C.; for Solubility in (D)-2: (D)-2: Propylene glycol monomethyl ether acetate
Protocol: The phenolic compounds (A-01 to A-15) obtained in Synthesis Examples 1 to 15 and the comparative phenolic compounds (CA-01 and CA-02) were added to the following typical resist solvents so as to have a concentration of 1 or 5 wt % at 23° C., followed by stirring:
(D)-1: Propylene glycol monomethylether
(D)-2: Propylene glycol monomethyl ether acetate
The thus-obtained mixtures were evaluated based on the following evaluation criterion.
? : The material for forming a pattern was dissolved at a concentration of 5 wt % at 23° C.,
∘: The material for forming a pattern was dissolved at a concentration of 1 wt % at 23° C.
x: The material for forming a pattern was insoluble.

| Glass Transition Temperature [1] | solubility in resist solvents (in words) ([3]; summary of Table 3) | solubility in propylene glycol monomethyl ether [3] | SMILES | Solubility in (D)-3 [2] | Solubility in (D)-1 [3] | Solubility in (D)-2 [3] |
| --- | --- | --- | --- | --- | --- | --- |
| 27 °C | dissolve in only specific solvents |  | CC(C)(c1cc(CO)c(O)c(CO)c1)c1cc(CO)c(O)c(CO)c1 [CA-01, 2,2-bis(4-hydroxy-3,5-dihydroxymethylphenyl)propane, reference compound] | ◯ (The material for forming a pattern was dissolved at a concentration of 1 wt % at 23° C.) | ◯ (The material for forming a pattern was dissolved at a concentration of 1 wt % at 23° C.) | X |
| 200 °C or |  |  | OCc1cc(C(c2cc(CO)c(O)c(C3CCCCC3)c2)C(c2cc(CO)c(O)c(C3CCCCC3)c2)c2cc(CO)c(O)c(C3CCCCC3)c2)cc(C2CCCCC2)c1O [Compound A-09] | ⊚ (The material for forming a pattern was dissolved at a concentration of 5 wt % at 23° C.) | ⊚ (The material for forming a pattern was dissolved at a concentration of 5 wt % at 23° C.) | ⊚ (The material for forming a pattern was dissolved at a concentration of 5 wt % at 23° C.) |
| 200 °C or |  |  | COCc1cc(C(c2cc(C)c(O)c(COC)c2)C(c2cc(C)c(O)c(COC)c2)c2cc(C)c(O)c(COC)c2)cc(C)c1O [Compound A-12] | ⊚ (The material for forming a pattern was dissolved at a concentration of 5 wt % at 23° C.) | ⊚ (The material for forming a pattern was dissolved at a concentration of 5 wt % at 23° C.) | ⊚ (The material for forming a pattern was dissolved at a concentration of 5 wt % at 23° C.) |
| 200 °C or |  | 5% | Cc1cc(C(c2cc(C)c(O)c(CO)c2)C(c2cc(C)c(O)c(CO)c2)c2cc(C)c(O)c(CO)c2)cc(CO)c1O [Compound A-02] | ⊚ (The material for forming a pattern was dissolved at a concentration of 5 wt % at 23° C.) | ⊚ (The material for forming a pattern was dissolved at a concentration of 5 wt % at 23° C.) | ◯ (The material for forming a pattern was dissolved at a concentration of 1 wt % at 23° C.) |
| 63 °C |  | 2% | CC(C)(C1CCC(c2cc(CO)c(O)c(CO)c2)(c2cc(CO)c(O)c(CO)c2)CC1)C1CCC(c2cc(CO)c(O)c(CO)c2)(c2cc(CO)c(O)c(CO)c2)CC1 [Compound A-01] | ⊚ (The material for forming a pattern was dissolved at a concentration of 5 wt % at 23° C.) | ◯ (The material for forming a pattern was dissolved at a concentration of 1 wt % at 23° C.) | ◯ (The material for forming a pattern was dissolved at a concentration of 1 wt % at 23° C.) |
| 135 °C |  |  | CC(C)(c1cccc(C(C)(C)c2cc(CO)c(O)c(CO)c2)c1)c1cc(CO)c(O)c(CO)c1 [Compound A-05] | ⊚ (The material for forming a pattern was dissolved at a concentration of 5 wt % at 23° C.) | ⊚ (The material for forming a pattern was dissolved at a concentration of 5 wt % at 23° C.) | ◯ (The material for forming a pattern was dissolved at a concentration of 1 wt % at 23° C.) |
| 62 °C |  |  | OCc1cc(C2(c3cc(CO)c(O)c(CO)c3)c3ccccc3-c3ccccc32)cc(CO)c1O [Compound A-04] | ⊚ (The material for forming a pattern was dissolved at a concentration of 5 wt % at 23° C.) | ⊚ (The material for forming a pattern was dissolved at a concentration of 5 wt % at 23° C.) | ⊚ (The material for forming a pattern was dissolved at a concentration of 5 wt % at 23° C.) |
| 200 °C or |  |  | Cc1cc(C2(c3cc(C)c(O)c(CO)c3)CCC(C(C)(C)C3CCC(c4cc(C)c(O)c(CO)c4)(c4cc(C)c(O)c(CO)c4)CC3)CC2)cc(CO)c1O [Compound A-13] | ⊚ (The material for forming a pattern was dissolved at a concentration of 5 wt % at 23° C.) | ⊚ (The material for forming a pattern was dissolved at a concentration of 5 wt % at 23° C.) | ⊚ (The material for forming a pattern was dissolved at a concentration of 5 wt % at 23° C.) |

| SMILES | Glass Transition Temperature [1] | solubility in resist solvents (in words) ([3]; summary of Table 3) | solubility in propylene glycol monomethyl ether [3] | Solubility in (D)-3 [2] | Solubility in (D)-1 [3] | Solubility in (D)-2 [3] |
| --- | --- | --- | --- | --- | --- | --- |
| c1cc(C(c2ccc(OCC3CO3)cc2)C(c2ccc(OCC3CO3)cc2)c2ccc(OCC3CO3)cc2)ccc1OCC1CO1 (stereo not drawn) [TEP-G, reference compound] | 47 °C |  |  |  |  |  |
